Laboratory results taken from patent publication US8404738B2 (Hoffmann-La Roche Inc., priority 2011, dated 2013).

How the values were obtained:
recombinant human HDAC8 = molecular target: T1, recombinant human HDAC8 (Homo sapiens, UniProt Q9BY41); test: HDAC8 inhibition: recombinant HDAC8 fluorometric assay; assay type: biochemical; settings: recombinant human HDAC8, substrate Ac-Arg-His-Lys-Lys(ε-acetyl)-AMC; read-out: HDAC8 IC50
T1 construct: made in house; host or cells: insect cells
T1 sequence (Q9BY41 1-377): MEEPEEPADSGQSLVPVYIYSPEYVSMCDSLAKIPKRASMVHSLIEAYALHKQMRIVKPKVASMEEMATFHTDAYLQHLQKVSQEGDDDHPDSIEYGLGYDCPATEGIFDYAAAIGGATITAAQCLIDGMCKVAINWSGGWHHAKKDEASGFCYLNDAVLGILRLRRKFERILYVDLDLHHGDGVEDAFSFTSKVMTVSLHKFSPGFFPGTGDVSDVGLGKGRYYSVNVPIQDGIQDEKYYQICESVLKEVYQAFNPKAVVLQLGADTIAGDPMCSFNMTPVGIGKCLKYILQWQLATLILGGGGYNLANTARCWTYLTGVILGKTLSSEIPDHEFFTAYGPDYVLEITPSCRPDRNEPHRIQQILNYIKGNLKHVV
Protocol: HDAC8 Inhibition by Novel Compounds: Recombinant HDAC8 Fluorometric Assay.
A competitive inhibitory assay of HDAC8 was carried out by using recombinant HDAC8 and a commercial substrate Ac-Arg-His-Lys-Lys(ε-acetyl)-AMC.
Compounds were tested for their ability to inhibit histone deacetylase 8 using an in vitro deacetylation assay. The enzyme source for this assay was recombinant human HDAC8 protein expressed and purified from insect cells. […] The substrate consisted of a commercial product Ac-Arg-His-Lys-Lys(ε-acetyl)-AMC (substrate is available from Cayman Chemical). […] 1 μl of half-log diluted compounds were added into wells and incubated for 15 min at rt. After that, 8 μl of substrate solution was transferred to the wells and incubated for 30 min at rt. After deacetylation of the substrate by incubation with HDAC8 enzyme, subsequent exposure to a developing reagent produced a fluorophore that was directly proportional to the level of deacetylation. […] The fluorescence signal was measured by a FlexStation3 plate reader (excitation wave length 340-360 nm; emission wave length 440-465 nm). The HDAC8 IC50 was calculated after normalization and curve fitting using XLfit4.0 software. Inhibition %=[Mean(top)−signal(sample)]×100/[Mean(top)−Mean(bottom)].

[1] = tested on: p21 promoter-luciferase construct; test: p21 reporter gene induction (HeLa cells, p21 promoter-luciferase construct); settings: for p21 RP3: relative gene level of p21 compared to MS275 at 3 μM; for p21 RP10: relative level of p21 compared to MS275 at 10 μM; for p21 RP30: relative level of p21 compared to MS275 at 30 μM;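 on all read-outs here: transfected HeLa cells exposed to compound for 15 h, luciferase luminescence read from lysates, p21 promoter lacks p53 site, proxy for cellular HDAC1/2/3 inhibition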

| Structure (SMILES) | IC50 (recombinant human HDAC8) [nM] | p21 RP3 [1] | p21 RP10 [1] | p21 RP30 [1] |
| --- | --- | --- | --- | --- |
| O=C(NO)c1ccc(NC2CCN(c3ccc(C(F)(F)F)cc3)C2=O)cc1 (centres unmarked) [Example 12, N-Hydroxy-4-[2-oxo-1-(4-trifluoromethyl-phenyl)-pyrrolidin-3-ylamino]-benzamide] | 990 | 0.01 | 0.10 | 0.14 |
| O=C(NO)c1ccc(NC2CCN(c3ccc(Cl)cc3Cl)C2=O)cc1 (centres unmarked) [Example 23, 4-[1-(2,4-Dichloro-phenyl)-2-oxo-pyrrolidin-3-ylamino]-N-hydroxy-benzamide] | 1410 | 0.10 | 0.04 | 0.03 |
| O=C(NO)c1ccc(NC2CCN(CCc3ccccc3)C2=O)cc1 (centres unmarked) [Example 43, N-Hydroxy-4-(2-oxo-1-phenethyl-pyrrolidin-3-ylamino)-benzamide] | 390 | −0.02 | 0.22 | 0.62 |
| COc1ccc(CN2CCC(Nc3ccc(C(=O)NO)cc3)C2=O)cc1 (centres unmarked) [Example 46, N-Hydroxy-4-[1-(4-methoxy-benzyl)-2-oxo-pyrrolidin-3-ylamino]-benzamide] | 390 | 0.07 | 0.26 | 0.70 |
| O=C(NO)c1ccc(NC2CCN(C3(c4ccccc4)CCC3)C2=O)cc1 (centres unmarked) [Example 54, N-Hydroxy-4-[2-oxo-1-(1-phenyl-cyclobutyl)-pyrrolidin-3-ylamino]-benzamide] | 310 | 0.28 | 0.46 | 0.79 |
| CCC1(Nc2ccc(C(=O)NO)cc2)CCN(C(C)(C)c2ccccc2)C1=O (centres unmarked) [Example 65, 4-[3-Ethyl-1-(1-methyl-1-phenyl-ethyl)-2-oxo-pyrrolidin-3-ylamino]-N-hydroxy-benzamide] | 560 | 0.00 | 0.00 | 0.00 |
| O=C(NO)c1ccc(NC2CCN(S(=O)(=O)c3ccccc3)C2)cc1 (centres unmarked) [Example 84, 4-(1-Benzenesulfonyl-pyrrolidin-3-ylamino)-N-hydroxy-benzamide] | 2770 | 0.13 | 0.02 | 0.01 |
| O=C(NO)c1ccc(NC2CCN(S(=O)(=O)c3ccc(Cl)cc3)C2)cc1 (centres unmarked) [Example 86, 4-[1-(4-Chloro-benzenesulfonyl)-pyrrolidin-3-ylamino]-N-hydroxy-benzamide] | 1540 | 0.04 | 0.01 | 0.01 |
| O=C(NO)c1ccc(NC2CCN(S(=O)(=O)c3ccc(-c4ccccc4)cc3)C2)cc1 (centres unmarked) [Example 87, 4-[1-(Biphenyl-4-sulfonyl)-pyrrolidin-3-ylamino]-N-hydroxy-benzamide] | 2010 | 0.20 | 0.00 | −0.03 |
| O=C(NO)c1ccc(NC2CCN(C(=O)c3ccccc3)C2)cc1 (centres unmarked) [Example 88, 4-(1-Benzoyl-pyrrolidin-3-ylamino)-N-hydroxy-benzamide] | 1350 | 0.35 | 0.06 | 0.03 |
| O=C(NO)c1ccc(NC2CCN(C(=O)c3ccc(F)cc3)C2)cc1 (centres unmarked) [Example 89, 4-[1-(4-Fluoro-benzoyl)-pyrrolidin-3-ylamino]-N-hydroxy-benzamide] | 900 | 0.38 | 0.10 | 0.06 |
